Measurements: patent publication US4436732A, “Medicated compound for treating diseases infected by virus of the herpes group” (priority 1981, dated 1984)

Assays:
[1] = effect on acute exudative and chronical proliferative phases of inflammation; assay type: in vivo, mice
Protocol: The effect of the active principle on the acute exudative and chronical proliferative phases of inflammation in doses of 10 and 50 mg/kg has been studied upon per os administration to mice.

[2] = test system: HV (virus of the herpes group); assay: antiviral properties in vitro in a culture of cells of fibroblasts of a chicken embryo (virus-suppressing effect, cytopathogenic effect); assay type: cell-based; conditions: 10 μg/ml; 100 TCD50 HV
Protocol: The study of antiviral properties of the active principle has been carried out in in vitro experiments in a culture of cells of fibroblasts of a chicken embryo following a commonly employed procedure for primary screening of antiviral preparations. Cells are grown in flasks or test-tubes on the nutrient medium 199 with the addition of 5 to 10 vol.% of cattle serum. Then, for the contact of the virus with cells, into the flasks a virus-containing material is added in doses of 1, 10, 100 and 1,000 TCD50. […] Flasks or test-tubes are then subjected to thermosetting at the temperature of 37° C. The virus-suppressing effect is determined for 5 days by way of comparison of the presence of cytopathogenic effect in the control and test flasks and test-tubes. As the control use is made of: control of the single layer of cells, the control of the active principle without virus and the control of the virus without the active principle.

[3] = neurotropic activity: influence upon the somnific effects of hexenal or chloralhydrate; assay type: in vivo; conditions: per os, 1, 10 and 100 mg/kg
Protocol: The neurotropic activity of the active principle is assessed through its influence upon the somnific effects of hexenal or chloralhydrate. The substance is introduced per os in the doses of 1, 10 and 100 mg/kg.

[4] = test system: smooth muscles of an isolated section of a rat's small intestine; assay: spasmolytic effect on acetylcholine and barium spasms of smooth muscles of an isolated section of small intestine
Description: (§1) The cardiological effect of the active principle has been studied in experiments on an isolated cat's heart; the effect on electrocardiographic characteristics has been studied in experiments on rabbits; the vasodilative effect--on vessels of an isolated rabbit's ear; the spasmolytic effect--on acetylcholine and barium spasms of smooth muscles of an isolated section of a rat's small intestine.

[5] = test system: herpetic encephalitis (HV); assay: experimental virus model of herpetic encephalitis of white mice; assay type: in vivo; conditions: for Average life span: control 4.78 ± 0.46; for Life span: control 12.7 ± 2.6; for Survival, %: control 70
Protocol: The chemotherapeutic effect of the active principle and the pharmaceutical composition on the whole has been studied on an experimental virus model of herpetic encephalitis of white mice. In the experiments more than 1,500 animals were used. To obtain the experimental encephalitis, white mice weighing 8-10 g have been infected intracerebrally. Prior to the infection the animal head skin is smeared with iodine, then ten-times dilutions of the virus-containing liquid in the volume of 0.03 ml are injected by means of a tuberculin syringe into the supraorbital area near the front median line to a depth of 1-2 mm directly into the brain. 3 to 7 days thereafter in the animals there were observed the disease signs (excitation, coordination disturbance, adynamia, paresis and paralysis) which were rapidly intensified and terminated in death. The experiments were assessed by the animal survival (in percent) and by the average life span of the test animals as compared to the control.
For treatment purposes the active principle or the medicated compound in the form of tablets is administered to the infected animals per os by means of a gastric tube as an aqueous suspension in the volume of 0.5 ml in doses of 20 to 500 mg/kg of the body weight 1 or 2 times per day. The tests have been carried out according to three schemes. In the first scheme, in order to preliminarily saturate the animal's organism with the active principle or the preparation were administered to the animals 1-2 days before the infection (preventive test). In the second scheme, to reveal the therapeutic effect of the active principle or the pharmaceutical composition, the compositions were introduced on the infection day and one or two days after the infection. In the third scheme (treatment-prophylaxis) the active principle or the medicated compound is administered the day before the infection or on the infection day, in both cases the treatment of the animal is continued for 5 to 7 days after the infection.
The most advantageous chemotherapeutic effect of the active principle or the pharmaceutical composition is manifested under the conditions of the treatment-prophylaxis application (third scheme).

[6] = cardiological effect / electrocardiographic characteristics; assay type: in vivo, rabbits; conditions: for increase of amplitude of cardiac contractions: P=0.05
Description: as §1
The studies have shown that upon the intravenous administration to rabbits of the active principle in the dose of 20 mg/kg it causes increased amplitude of cardiac contractions by 34% (P=0.05), in the dose of 50 mg/kg--by 41% (P=0.05); rarefaction of the rhythm of cardiac contractions in rabbits by 10-18% on the average and increase of the voltage of the peak P by 32%. […] A slight increase of the voltage of the peak P on the average by 20% is observed.

[7] = antidiabetic effect: glucose in blood under alimentary carbohydrate load; assay type: in vivo, rabbits; conditions: per os
Protocol: To reveal the antidiabetic effect of the active principle, its effect on the content of glucose in rabbit's blood under the conditions of alimentary carbohydrate load has been studied. The active principle is administered in doses of 50 and 100 mg/kg once per os through a tube in a 1% starch paste. The experiment scheme is the following: the content of glucose in blood is determined in rabbit's blood on an empty stomach, and 40 minutes thereafter the content of glucose is again determined in blood. Afterwards, glucose is administered to the rabbits at the rate of 1.5 g/kg and the content of glucose in blood is determined 15, 30, 45, 60, 90 and 120 minutes after the administration thereof.

[8] = once a day, 0.04 mg/mice, P above 0.5
[9] = once a day, 0.2 mg/mice, P above 0.25
[10] = once a day, 1 mg/mice, P above 0.25
[11] = once a day, 5 mg/mice, P above 0.5
[12] = two times a day, 0.04 mg/mice, P above 0.1
[13] = two times a day, 0.2 mg/mice, P below 0.05
[14] = two times a day, 1 mg/mice, P below 0.05
[15] = two times a day, 5 mg/mice, P above 0.1
[16] = intra-stomach, 50 and 150 mg/kg

O=c1c2cc(O)c(O)cc2oc2cc(O)c([C@@H]3O[C@H](CO)[C@@H](O)[C@H](O)[C@H]3O)c(O)c12 [active principle, 2-C-β-D-glucopyranosyl-1,3,6,7-tetraoxyxanthone]
exudative phase in chronical proliferative inflammation ([1]; model of chronical proliferative inflammation): somewhat suppresses
development of the exudative phase of inflammation ([1]; per os, 50 mg/kg): suppresses the development of the exudative phase of inflammation
antiphlogistic activity relative to formalin edema ([1]; per os, 50 mg/kg, P below 0.005): 12.7
antiphlogistic activity relative to dextran edema ([1]; per os, 50 mg/kg, P below 0.05): 16.5
lowering of penetration of skin vessels ([1]; per os, 50 mg/kg, P below 0.05): 15%
antiphlogistic effect ([1]; per os, 10 and 50 mg/kg): slight antiphlogistic effect
formation of granulation-fibrous tissue ([1]; proliferative stage of chronical inflammation): retards the formation of a granulation-fibrous tissue
virus-suppressing effect [2]: high virus-suppressing effect
effect on duration of sleep caused by chloralhydrate [3]: no substantial effect
effect on duration of sleep caused by hexenal [3]: no substantial effect
spasmolytic effect [4]: no vasodilative and spasmolytic effect
chemotherapeutic effect ([5]; administration in maximum shortest time of the infection (Table 2)): highest
chemotherapeutic effect ([5]; administration two times a day (Table 1)): highest, statistically certain chemotherapeutic effect
chemotherapeutic effect (time of death vs control) ([5]; first two schemes (preventive; therapeutic), per os): impossible to reveal statistically certain chemotherapeutic effect
Average life span ([5]; on the infection day, 1 mg/mice, P above 0.25): 5.16 ± 0.91 days
Average life span ([5]; on the infection day, 2 mg/mice, P above 0.5): 5.0 ± 0.56 days
Average life span ([5]; on the infection day, 5 mg/mice, P below 0.05): 6.41 ± 0.71 days
Life span [5, 8]: 13.3 ± 2.5 days
Survival, % [5, 8]: 80%
Life span [5, 9]: 14.0 ± 2.3 days
Survival, % [5, 9]: 90%
Life span [5, 10]: 14.0 ± 2.2 days
Survival, % [5, 10]: 90%
Life span [5, 11]: 13.1 ± 2.7 days
Survival, % [5, 11]: 70%
Average life span ([5]; one day before infection, 1 mg/mice, P 0.05): 5.6 ± 0.82 days
Average life span ([5]; one day before infection, 2 mg/mice, P below 0.05): 6.05 ± 0.83 days
Average life span ([5]; one day before infection, 5 mg/mice, P below 0.05): 6.13 ± 1.04 days
Life span [5, 12]: 14.1 ± 0.9 days
Survival, % [5, 12]: 90%
Life span [5, 13]: 15.0 days
Survival, % [5, 13]: 100%
Life span [5, 14]: 15.0 days
Survival, % [5, 14]: 100%
Life span [5, 15]: 14.3 ± 2.5 days
Survival, % [5, 15]: 90%
effect on duration of intervals of the cardiac cycle [6, 16]: no substantial effect
effect on the rhythm of cardiac contractions [6, 16]: no substantial effect
increase of the voltage of the peak P ([6]; intra-stomach, 50 and 150 mg/kg, on the average): 20%
increase of the voltage of the peak P ([6]; intravenous, rabbits): 32%
increase of amplitude of cardiac contractions ([6]; intravenous, rabbits, 20 mg/kg): 34%
increase of amplitude of cardiac contractions ([6]; intravenous, rabbits, 50 mg/kg): 41%
rarefaction of the rhythm of cardiac contractions ([6]; intravenous, rabbits, on the average): 10-18%
cardiostimulant effect ([6]; rabbit, in vivo): slight cardiostimulant effect
effect on the glycemic curve ([7]; 50 mg/kg): no effect
increase of glucose tolerance ([7]; 100 mg/kg, uncertainly increased): 14%
